Laboratory results published in US10251892B2, “Bicyclic heterocycles as FGFR4 inhibitors” (Incyte Corporation, priority 2015, dated 2019).

Molecular target: FGFR3 enzyme (Homo sapiens (Human), UniProt P22607)
Assay: FGFR Enzymatic Assay (peptide phosphorylation, FRET), FGFR3
Assay type: biochemical
Settings: IC50 ratio showing FGFR3 selectivity; pre-incubated for 4 hours
Procedure: The inhibitor potency of the exemplified compounds was measured in an enzyme assay that measures peptide phosphorylation using FRET measurements to detect product formation. Inhibitors were serially diluted in DMSO and a volume of 0.5 μL was transferred to the wells of a 384-well plate.
GraphPad prism3 was used to analyze the data.

Chain of FGFR3 enzyme (P22607 23-806): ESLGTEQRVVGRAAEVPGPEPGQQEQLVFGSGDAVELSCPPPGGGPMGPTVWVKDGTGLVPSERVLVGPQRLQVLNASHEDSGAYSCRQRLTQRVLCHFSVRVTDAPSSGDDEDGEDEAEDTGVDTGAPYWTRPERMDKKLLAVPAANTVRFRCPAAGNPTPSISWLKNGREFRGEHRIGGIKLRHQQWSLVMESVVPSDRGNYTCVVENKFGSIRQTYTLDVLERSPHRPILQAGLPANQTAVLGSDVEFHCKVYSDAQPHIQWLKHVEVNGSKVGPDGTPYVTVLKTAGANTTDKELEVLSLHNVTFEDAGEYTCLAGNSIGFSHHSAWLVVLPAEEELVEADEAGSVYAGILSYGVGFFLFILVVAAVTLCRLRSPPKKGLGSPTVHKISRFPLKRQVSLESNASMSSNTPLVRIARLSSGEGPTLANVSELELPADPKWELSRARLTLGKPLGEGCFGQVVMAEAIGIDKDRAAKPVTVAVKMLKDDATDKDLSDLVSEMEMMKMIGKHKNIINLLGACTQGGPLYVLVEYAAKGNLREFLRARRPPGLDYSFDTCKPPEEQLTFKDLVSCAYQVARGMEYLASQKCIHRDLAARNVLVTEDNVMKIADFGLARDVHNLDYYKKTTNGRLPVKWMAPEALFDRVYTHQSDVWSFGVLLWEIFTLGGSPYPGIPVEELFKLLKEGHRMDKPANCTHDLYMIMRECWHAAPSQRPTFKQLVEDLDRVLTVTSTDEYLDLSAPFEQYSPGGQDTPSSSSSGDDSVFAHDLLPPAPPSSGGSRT

Row | Structure (SMILES) | FGFR1/FGFR3 | FGFR4/FGFR3
1 | COc1cc(OC)c(F)c(N2Cc3cnc(-c4ccc(C#N)nc4)cc3C3(CC3)C2=O)c1F [Example 20, 5-(2′-(2,6-difluoro-3,5-dimethoxyphenyl)-3′-oxo-2′,3′-dihydro-1′H-spiro[cyclopropane-1,4′-[2,7]naphthyridine]-6′-yl)picolinonitrile] | >5 | 
2 | COc1cc(OC)c(F)c(N2Cc3cnc(-c4cn(C5CCS(=O)(=O)C5)nc4C)cc3C3(CC3)C2=O)c1F (stereo not shown) [Example 54, 2′-(2,6-difluoro-3,5-dimethoxyphenyl)-6′-[1-(1,1-dioxidotetrahydro-3-thienyl)-3-methyl-1H-pyrazol-4-yl]-1′,2′-dihydro-3′H-spiro[cyclopropane-1,4′-[2,7]naphthyridin]-3′-one] | >5 | >1
3 | CCN1C(=O)N(c2c(F)c(OC)cc(OC)c2F)Cc2cnc(-c3ccc(CN4CC[C@H](C#N)C4)cc3)cc21 [Example 25, (S)-1-(4-(3-(2,6-difluoro-3,5-dimethoxyphenyl)-1-ethyl-2-oxo-1,2,3,4-tetrahydropyrido[4,3-d]pyrimidin-7-yl)benzyl)pyrrolidine-3-carbonitrile] | >5 | >5
4 | COc1cc(OC)c(F)c(N2Cc3cnc(-c4cn(C)nc4C)cc3N(Cc3cc(C)on3)C2=O)c1F [Example 31, 3-(2,6-difluoro-3,5-dimethoxyphenyl)-7-(1,3-dimethyl-1H-pyrazol-4-yl)-1-((5-methylisoxazol-3-yl)methyl)-3,4-dihydropyrido[4,3-d]pyrimidin-2(1H)-one] | >5 | >10
5 | COc1cc(OC)c(F)c(N2Cc3cnc(-c4cn(C)nc4C)cc3N(c3ccc(C#N)cc3)C2=O)c1F [Example 44, 4-(3-(2,6-difluoro-3,5-dimethoxyphenyl)-7-(1,3-dimethyl-1H-pyrazol-4-yl)-2-oxo-3,4-dihydropyrido[4,3-d]pyrimidin-1(2H)-yl)benzonitrile] | >10 | >10
6 | COc1cc(OC)c(F)c(N2Cc3cnc(-c4cn(C)nc4C)cc3N(Cc3ccc4c(c3)OCCO4)C2=O)c1F [Example 38, 3-(2,6-difluoro-3,5-dimethoxyphenyl)-1-((2,3-dihydrobenzo[b][1,4]dioxin-6-yl)methyl)-7-(1,3-dimethyl-1H-pyrazol-4-yl)-3,4-dihydropyrido[4,3-d]pyrimidin-2(1H)-one] | >5 | >5
7 | CCN1C(=O)N(c2c(F)c(OC)cc(OC)c2F)Cc2cnc(-c3ccc(C4(C#N)CCC4)nc3)cc21 [Example 27, 1-(5-(3-(2,6-difluoro-3,5-dimethoxyphenyl)-1-ethyl-2-oxo-1,2,3,4-tetrahydropyrido[4,3-d]pyrimidin-7-yl)pyridin-2-yl)cyclobutanecarbonitrile] | >10 | >10
8 | COc1cc(OC)c(F)c(N2Cc3cnc(-c4cn(C)nc4C)cc3N(Cc3nnc(C)o3)C2=O)c1F [Example 46, 3-(2,6-difluoro-3,5-dimethoxyphenyl)-7-(1,3-dimethyl-1H-pyrazol-4-yl)-1-[(5-methyl-1,3,4-oxadiazol-2-yl)methyl]-3,4-dihydropyrido[4,3-d]pyrimidin-2(1H)-one] | >10 | >10
9 | COc1cc(OC)c(F)c(N2Cc3cnc(-c4cn(C5CCN(CC#N)C5)nc4C)cc3C3(CC3)C2=O)c1F (stereo not shown) [Example 154, 2-(3-(4-(2′-(2,6-difluoro-3,5-dimethoxyphenyl)-3′-oxo-2′,3′-dihydro-1′H-spiro[cyclopropane-1,4′-[2,7]naphthyridine]-6′-yl)-3-methyl-1H-pyrazol-1-yl)pyrrolidin-1-yl)acetonitrile] | >5 | >3
10 | COc1cc(OC)c(F)c(N2Cc3cnc(-c4cn(C)nc4C)cc3N(c3ccnnc3)C2=O)c1F [Example 57, 3-(2,6-difluoro-3,5-dimethoxyphenyl)-7-(1,3-dimethyl-1H-pyrazol-4-yl)-1-(pyridazin-4-yl)-3,4-dihydropyrido[4,3-d]pyrimidin-2(1H)-one] | >10 | >10
11 | CCc1nnc(CN2C(=O)N(c3c(F)c(OC)cc(OC)c3F)Cc3cnc(-c4cn(C)nc4C)cc32)o1 [Example 67, 3-(2,6-difluoro-3,5-dimethoxyphenyl)-7-(1,3-dimethyl-1H-pyrazol-4-yl)-1-((5-ethyl-1,3,4-oxadiazol-2-yl)methyl)-3,4-dihydropyrido[4,3-d]pyrimidin-2(1H)-one] | >5 | >10
12 | COc1cc(OC)c(F)c(N2Cc3cnc(-c4cn(C)nc4C)cc3N(c3cncnc3)C2=O)c1F [Example 61, 3-(2,6-difluoro-3,5-dimethoxyphenyl)-7-(1,3-dimethyl-1H-pyrazol-4-yl)-1-(pyrimidin-5-yl)-3,4-dihydropyrido[4,3-d]pyrimidin-2(1H)-one] | >10 | >5

Results, then the molecule that gave them:

Row | FGFR1/FGFR3 | FGFR4/FGFR3 | Structure (SMILES)
13 | >10 | >10 | COc1cc(OC)c(F)c(N2Cc3cnc(-c4cn(C)nc4C)cc3N(Cc3cnn(C4CC4)c3)C2=O)c1F [Example 124, 1-((1-cyclopropyl-1H-pyrazol-4-yl)methyl)-3-(2,6-difluoro-3,5-dimethoxyphenyl)-7-(1,3-dimethyl-1H-pyrazol-4-yl)-3,4-dihydropyrido[4,3-d]pyrimidin-2(1H)-one]
14 | >5 | >5 | COc1cc(OC)c(F)c(N2Cc3cnc(-c4cn(C)nc4C)cc3N(Cc3cncnc3)C2=O)c1F [Example 84, 3-(2,6-difluoro-3,5-dimethoxyphenyl)-7-(1,3-dimethyl-1H-pyrazol-4-yl)-1-(pyrimidin-5-ylmethyl)-3,4-dihydropyrido[4,3-d]pyrimidin-2(1H)-one]
15 | >3 | >3 | COc1cc(OC)c(F)c(N2Cc3cnc(-c4cn(C5CCN(C)C5)nc4C)cc3C3(CC3)C2=O)c1F (stereo not shown) [Example 163, 2′-(2,6-difluoro-3,5-dimethoxyphenyl)-6′-(3-methyl-1-(1-methylpyrrolidin-3-yl)-1H-pyrazol-4-yl)-1′H-spiro[cyclopropane-1,4′-[2,7]naphthyridin]-3′(2′H)-one]
16 | >5 | >5 | COc1cc(OC)c(F)c(N2Cc3cnc(-c4cn(C)nc4C)cc3N(Cc3ccc(C#N)nc3)C2=O)c1F [Example 74, 5-((3-(2,6-difluoro-3,5-dimethoxyphenyl)-7-(1,3-dimethyl-1H-pyrazol-4-yl)-2-oxo-3,4-dihydropyrido[4,3-d]pyrimidin-1(2H)-yl)methyl)picolinonitrile]
17 | >3 | >5 | CCN1C(=O)N(c2c(F)c(OC)cc(OC)c2F)Cc2cnc(-c3cnn(C)c3)cc21 [Example 169, 3-(2,6-difluoro-3,5-dimethoxyphenyl)-1-ethyl-7-(1-methyl-1H-pyrazol-4-yl)-3,4-dihydropyrido[4,3-d]pyrimidin-2(1H)-one]
18 | >5 | >5 | CCN1C(=O)N(c2c(F)c(OC)cc(OC)c2F)Cc2cnc(-c3ccc(C(N)=O)nc3)cc21 [Example 184, 5-(3-(2,6-difluoro-3,5-dimethoxyphenyl)-1-ethyl-2-oxo-1,2,3,4-tetrahydropyrido[4,3-d]pyrimidin-7-yl)picolinamide]
19 | >3 | >5 | CNS(=O)(=O)c1cccc(N2C(=O)N(c3c(F)c(OC)cc(OC)c3F)Cc3cnc(-c4cn(C)nc4C)cc32)c1 [Example 111, 3-(3-(2,6-difluoro-3,5-dimethoxyphenyl)-7-(1,3-dimethyl-1H-pyrazol-4-yl)-2-oxo-3,4-dihydropyrido[4,3-d]pyrimidin-1(2H)-yl)-N-methylbenzenesulfonamide]
20 | >3 | >10 | COc1cccc(N2C(=O)N(c3c(F)c(OC)cc(OC)c3F)Cc3cnc(-c4cn(C)nc4C)cc32)c1 [Example 109, 3-(2,6-difluoro-3,5-dimethoxyphenyl)-7-(1,3-dimethyl-1H-pyrazol-4-yl)-1-(3-methoxyphenyl)-3,4-dihydropyrido[4,3-d]pyrimidin-2(1H)-one]
21 | >3 | >3 | COc1cc(OC)c(F)c(N2Cc3cnc(-c4ccncc4)cc3C3(CC3)C2=O)c1F [Example 185, 2′-(2,6-difluoro-3,5-dimethoxyphenyl)-6′-(pyridin-4-yl)-1′H-spiro[cyclopropane-1,4′-[2,7]naphthyridin]-3′(2′H)-one]
22 | >5 | >3 | COc1cc(OC)c(F)c(N2Cc3cnc(-c4cnn(C5(C#N)CCC5)c4C)cc3C3(CC3)C2=O)c1F [Example 149, 1-(4-(2′-(2,6-difluoro-3,5-dimethoxyphenyl)-3′-oxo-2′,3′-dihydro-1′H-spiro[cyclopropane-1,4′-[2,7]naphthyridine]-6′-yl)-5-methyl-1H-pyrazol-1-yl)cyclobutanecarbonitrile]
23 | >3 | >5 | COc1cc(OC)c(F)c(N2Cc3cnc(-c4cn(C)nc4C)cc3N(c3ccc(-c4nnc(C)o4)cc3)C2=O)c1F [Example 115, 3-(2,6-difluoro-3,5-dimethoxyphenyl)-7-(1,3-dimethyl-1H-pyrazol-4-yl)-1-(4-(5-methyl-1,3,4-oxadiazol-2-yl)phenyl)-3,4-dihydropyrido[4,3-d]pyrimidin-2(1H)-one]
24 | >3 | >5 | COc1cc(OC)c(F)c(N2Cc3cnc(-c4cn(C)nc4C)cc3N(c3ncccn3)C2=O)c1F [Example 105, 3-(2,6-difluoro-3,5-dimethoxyphenyl)-7-(1,3-dimethyl-1H-pyrazol-4-yl)-1-(pyrimidin-2-yl)-3,4-dihydropyrido[4,3-d]pyrimidin-2(1H)-one]
25 | >5 | >3 | COc1cc(OC)c(F)c(N2Cc3cnc(-c4cnn(CCN5CCC(OC)CC5)c4)cc3C3(CC3)C2=O)c1F [Example 152, 2′-(2,6-difluoro-3,5-dimethoxyphenyl)-6′-(1-(2-(4-methoxypiperidin-1-yl)ethyl)-1H-pyrazol-4-yl)-1′H-spiro[cyclopropane-1,4′-[2,7]naphthyridin]-3′(2′H)-one]
